Test results as given in patent publication US20240027453A1, “METHOD FOR DETECTION AND QUANTITATIVE MONITORING OF INFECTIONS WITH HERPESVIRUSES” (The Trustees of Princeton University, priority 2020, published 2024).
Read-outs that look alike come from different tables or passages of the source.

System: HCMV
Assay type: cell-based
Conditions: FIG. 7A
Outline: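 Viral protein levels come from parallel reaction monitoring on a Q Exactive HF: trypsin digests of infected-cell lysates, quantified as summed transition areas, normalized to host control peptides, averaged across peptides per protein. Cells were MRC5 fibroblasts, infected at MOI 3 (HSV-1 or HCMV) after 12 h compound pretreatment, with re-dosing every 24 h.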
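Wherever TRM2 (P16792) protein level is given: each peptide scaled to its average across all runs.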
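Wherever UL29 (P16764) protein level is given: each peptide scaled to its average across all runs.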
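Wherever UL31 (P16848) protein level is given: each peptide scaled to its average across all runs.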
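Wherever UL88 (P16731) protein level is given: each peptide scaled to its average across all runs.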

Oc1ccc(C=Cc2cc(O)cc(O)c2)cc1 [Resveratrol] was tested, and the “UL122 (P19893) protein level” value (timepoint 48, IE) was 0.07155, the “UL123 (P13202) protein level” value (timepoint 48, IE) was 0.9494 and the “CVC1 (P16799) protein level” value (timepoint 48, L) was 0.3339. The “GO (P16750) protein level” value (timepoint 48, L) was 0.02075, the “IR11 (P16809) protein level” value (timepoint 48, L) was 0.3219 and the “MCP (P16729) protein level” value (timepoint 48, L) was 0.008603. For the same molecule, the “SCP (Q7M6N6) protein level” value (timepoint 48, L) was 0.008886, the “TRM2 (P16792) protein level” value (timepoint 48, L) was 0.03458 and the “UL22A (P16845) protein level” value (timepoint 48, L) was 0.2188. For the same molecule, the “UL25 (P16761) protein level” value (timepoint 48, L) was 0.07603, the “UL29 (P16764) protein level” value (timepoint 48, L) was 0.5648 and the “UL30 (P16765) protein level” value (timepoint 48, L) was 0.14. The “UL31 (P16848) protein level” value (timepoint 48, L) was 0.3217, the “UL43 (P16781) protein level” value (timepoint 48, L) was 0.06887 and the “UL52 (P16793) protein level” value (timepoint 48, L) was 0.09774. For the same molecule, the “UL80 (P16753) protein level” value (timepoint 48, L) was 0.04182, the “UL82 (P06726) protein level” value (timepoint 48, L) was 0.2191 and the “UL88 (P16731) protein level” value (timepoint 48, L) was 0.09401. The “UL94 (P16800) protein level” value (timepoint 48, L) was 0.1811, the “UL99 (P13200) protein level” value (timepoint 48, L) was 0.09897 and the “UL103 (P16734) protein level” value (timepoint 48, L) was 0.1489. The “UL117 (P16770) protein level” value (timepoint 48, L) was 0.4909, the “gL (P16832) protein level” value (timepoint 48, L) was 0.05817 and the “gM (P16733) protein level” value (timepoint 48, L) was 0.04711. For the same molecule, the “gN (P16795) protein level” value (timepoint 48, L) was 0.08482, the “DUT (P16824) protein level” value (timepoint 48, LL) was 0.2262 and the “IR12 (P16810) protein level” value (timepoint 48, LL) was 0.2614. For the same molecule, the “TRM3 (P16732) protein level” value (timepoint 48, LL) was 0.02426, the “TRX1 (P16783) protein level” value (timepoint 48, LL) was 0.01259 and the “TRX2 (P16728) protein level” value (timepoint 48, LL) was 0.01003. For the same molecule, the “UL24 (P16760) protein level” value (timepoint 48, LL) was 0.1046, the “UL40 (P16780) protein level” value (timepoint 48, LL) was 1.098 and the “UL47 (P16784) protein level” value (timepoint 48, LL) was 0.04257. The “UL49 (P16786) protein level” value (timepoint 48, LL) was 0.91, the “UL69 (P16749) protein level” value (timepoint 48, LL) was 0.3024 and the “UL70 (P17149) protein level” value (timepoint 48, LL) was 0.5546. For the same molecule, the “UL83 (P06725) protein level” value (timepoint 48, LL) was 0.03671, the “UL132 (P69338) protein level” value (timepoint 48, LL) was 0.2027 and the “US15 (P09718) protein level” value (timepoint 48, LL) was 1.334. For the same molecule, the “CVC2 (P16726) protein level” value (timepoint 72, DE) was 0.05308, the “DBP (P17147) protein level” value (timepoint 72, DE) was 0.2031 and the “HELI (P16736) protein level” value (timepoint 72, DE) was 0.7626. The “IR01 (P09710) protein level” value (timepoint 72, DE) was 0.4495, the “NEC2 (P16791) protein level” value (timepoint 72, DE) was 0.231 and the “RIR1 (P16782) protein level” value (timepoint 72, DE) was 0.1696. For the same molecule, the “TRM1 (P16724) protein level” value (timepoint 72, DE) was 0.1736, the “UL4 (P17146) protein level” value (timepoint 72, DE) was 0.1863 and the “UL26 (P16762) protein level” value (timepoint 72, DE) was 0.087. The “UL32 (P08318) protein level” value (timepoint 72, DE) was 0.09834, the “UL34 (P16812) protein level” value (timepoint 72, DE) was 0.1945 and the “UL35 (P16766) protein level” value (timepoint 72, DE) was 0.0668. For the same molecule, the “UL38 (P16779) protein level” value (timepoint 72, DE) was 0.6571, the “UL44 (P16790) protein level” value (timepoint 72, DE) was 0.1077 and the “UL48 (P16785) protein level” value (timepoint 72, DE) was 0.0769. For the same molecule, the “UL54 (P08546) protein level” value (timepoint 72, DE) was 0.8921, the “UL71 (P16823) protein level” value (timepoint 72, DE) was 0.4201 and the “UL78 (P16751) protein level” value (timepoint 72, DE) was 0.4371. The “UL84 (P16727) protein level” value (timepoint 72, DE) was 0.1807, the “UL95 (P16801) protein level” value (timepoint 72, DE) was 0.4887 and the “UL96 (P16787) protein level” value (timepoint 72, DE) was 0.2804. For the same molecule, the “UL97 (P16788) protein level” value (timepoint 72, DE) was 0.2884, the “UL98 (P16789) protein level” value (timepoint 72, DE) was 0.2614 and the “UL102 (P16827) protein level” value (timepoint 72, DE) was 1.1. The “UL104 (P16735) protein level” value (timepoint 72, DE) was 0.1108, the “UL112/UL113 (P17151) protein level” value (timepoint 72, DE) was 0.3912 and the “UL114 (P16769) protein level” value (timepoint 72, DE) was 1.097. For the same molecule, the “UL119/UL118 (P16739) protein level” value (timepoint 72, DE) was 0.2241, the “UL128 (P16837) protein level” value (timepoint 72, DE) was 0.03713 and the “US8 (P09730) protein level” value (timepoint 72, DE) was 1.041. The “US9 (P09729) protein level” value (timepoint 72, DE) was 1.966, the “US12 (P09721) protein level” value (timepoint 72, DE) was 0.2709 and the “US13 (P09720) protein level” value (timepoint 72, DE) was 0.5064. The “US14 (P09719) protein level” value (timepoint 72, DE) was 0.1413, the “US22 (P09722) protein level” value (timepoint 72, DE) was 0.5654 and the “US23 (P09701) protein level” value (timepoint 72, DE) was 0.5216. For the same molecule, the “US24 (P09700) protein level” value (timepoint 72, DE) was 0.3422, the “gB (P06473) protein level” value (timepoint 72, DE) was 0.2078 and the “IRS1 (P09715) protein level” value (timepoint 72, IE) was 1.155. For the same molecule, the “TRS1 (P09695) protein level” value (timepoint 72, IE) was 1.081, the “UL13 (P16755) protein level” value (timepoint 72, IE) was 0.4777 and the “UL36 (P16767) protein level” value (timepoint 72, IE) was 0.8125. The “UL37 (P16778) protein level” value (timepoint 72, IE) was 0.998, the “UL122 (P19893) protein level” value (timepoint 72, IE) was 0.0988 and the “UL123 (P13202) protein level” value (timepoint 72, IE) was 0.8573. The “CVC1 (P16799) protein level” value (timepoint 72, L) was 0.4295, the “GO (P16750) protein level” value (timepoint 72, L) was 0.03881 and the “IR11 (P16809) protein level” value (timepoint 72, L) was 0.253. The “MCP (P16729) protein level” value (timepoint 72, L) was 0.01144, the “SCP (Q7M6N6) protein level” value (timepoint 72, L) was 0.004632 and the “TRM2 (P16792) protein level” value (timepoint 72, L) was 0.02287. The “UL22A (P16845) protein level” value (timepoint 72, L) was 0.2623, the “UL25 (P16761) protein level” value (timepoint 72, L) was 0.1265 and the “UL29 (P16764) protein level” value (timepoint 72, L) was 0.4756. For the same molecule, the “UL30 (P16765) protein level” value (timepoint 72, L) was 0.1344, the “UL31 (P16848) protein level” value (timepoint 72, L) was 0.3595 and the “UL43 (P16781) protein level” value (timepoint 72, L) was 0.07284. For the same molecule, the “UL52 (P16793) protein level” value (timepoint 72, L) was 0.1143, the “UL76 (P16725) protein level” value (timepoint 72, L) was 0.0261 and the “UL80 (P16753) protein level” value (timepoint 72, L) was 0.05404. The “UL82 (P06726) protein level” value (timepoint 72, L) was 0.2813, the “UL87 (P16730) protein level” value (timepoint 72, L) was 0.03862 and the “UL88 (P16731) protein level” value (timepoint 72, L) was 0.1555. The “UL94 (P16800) protein level” value (timepoint 72, L) was 0.2402, the “UL99 (P13200) protein level” value (timepoint 72, L) was 0.1374 and the “UL103 (P16734) protein level” value (timepoint 72, L) was 0.1294. For the same molecule, the “UL117 (P16770) protein level” value (timepoint 72, L) was 0.3032, the “gH (P12824) protein level” value (timepoint 72, L) was 0.1717 and the “gL (P16832) protein level” value (timepoint 72, L) was 0.07772. For the same molecule, the “gM (P16733) protein level” value (timepoint 72, L) was 0.06954, the “gN (P16795) protein level” value (timepoint 72, L) was 0.07119 and the “IR12 (P16810) protein level” value (timepoint 72, LL) was 0.182. For the same molecule, the “TRM3 (P16732) protein level” value (timepoint 72, LL) was 0.02749, the “TRX1 (P16783) protein level” value (timepoint 72, LL) was 0.01995 and the “TRX2 (P16728) protein level” value (timepoint 72, LL) was 0.01998. The “UL24 (P16760) protein level” value (timepoint 72, LL) was 0.1072, the “UL40 (P16780) protein level” value (timepoint 72, LL) was 0.6851 and the “UL47 (P16784) protein level” value (timepoint 72, LL) was 0.08828. For the same molecule, the “UL49 (P16786) protein level” value (timepoint 72, LL) was 1.209, the “UL69 (P16749) protein level” value (timepoint 72, LL) was 0.3758 and the “UL70 (P17149) protein level” value (timepoint 72, LL) was 0.682. For the same molecule, the “UL83 (P06725) protein level” value (timepoint 72, LL) was 0.03846, the “UL132 (P69338) protein level” value (timepoint 72, LL) was 0.215 and the “US15 (P09718) protein level” value (timepoint 72, LL) was 0.6869.
